# Biological target: T1, BCL6::BCOR (Homo sapiens, UniProt P41182, C67R/C84N/C8Q)
# T1 construct: BCL6 (amino acids 5 to 129, with the following changes to the natural protein); made in house; host or cells: E. coli
# Assay: BCL6::BCOR ULight TR-FRET assay
# Assay type: binding
# Text: Biological Methods BCL6::BCOR ULight TR-FRET Assay:
# Biotinylated BCL6 protein corresponding to BCL6 (amino acids 5 to 129, with the following changes to the natural protein: C8Q, C67R, C84N) is expressed in E. coli with a carboxy-terminal Avi tag (amino acid sequence […]). The BCOR ULight peptide uses a direct carboxy-terminal ULight tag (PerkinElmer). The sequence of the peptide is CRSEIISTAPSSWVVPGP, with the amino terminus acetylated and the ULight tag attached to the cysteine. Compounds are dispensed onto assay plates (Proxiplate 384 PLUS, white, PerkinElmer) using an Access Labcyte Workstation with the Labcyte Echo 55×from a DMSO solution. For the chosen highest assay concentration of 100 μM, 150 nl of compound solution are transferred from a 10 mM DMSO compound stock solution. A series of 11 concentrations is transferred for each compound at which each concentration is fivefold lower than the previous one. DMSO is added such that every well has a total of 150 nl compound solution. 5 μL of 1 nM BCL6 protein in assay buffer (50 mM HEPES pH 7.3; 125 mM NaCl; 1 mM GSH; 0.01% Triton-X 100; 0.03% BSA) are added to the 150 nl of compounds. After 30 minutes incubation time at room temperature, 10 μL of a mix containing BCOR ULight peptide (100 nM final assay concentration) and Streptavidin-Europium (0.75 nM final assay concentration) are added. Plates are kept at room temperature. After 240 minutes incubation time the TR-FRET signal is measured in a PerkinElmer Envision HTS Multilabel Reader using the TR-FRET LANCE Ultra specs of PerkinElmer. Each plate contains negative controls (diluted DMSO instead of test compound; BCOR peptide and Streptavidin Europium mix with BCL6 protein) and positive controls (diluted DMSO instead of test compound; BCOR peptide and Streptavidin-Europium mix without BCL6 protein). Negative and positive control values are used for normalization.
row,Compound,IC50
1,CNC(=O)COc1cc2cc(Nc3nc(N4CCC(C(F)(F)F)CC4)ncc3Cl)ccc2n(C)c1=O [Compound I-33],62 nM
2,CNC(=O)COc1cc2cc(Nc3nc(N4CCC(Cl)CC4)ncc3Cl)ccc2n(C)c1=O [Compound I-34],6 nM
3,CNC(=O)COc1cc2cc(Nc3nc(N4CCC(C)CC4)ncc3Cl)ccc2n(C)c1=O [Compound I-35],8 nM
4,CNC(=O)COc1cc2cc(Nc3nc(N4CCC5(CCN(C)CC5)CC4)ncc3Cl)ccc2n(C)c1=O [Compound I-36],5 nM
5,CNC(=O)COc1cc2cc(Nc3nc(N4CCC(N5CCCCCC5)CC4)ncc3Cl)ccc2n(C)c1=O [Compound I-37],7 nM
6,CCN1CCN(C2CCN(c3ncc(Cl)c(Nc4ccc5c(c4)cc(OCC(=O)NC)c(=O)n5C)n3)CC2)CC1 [Compound I-38],35 nM
7,CNC(=O)COc1cc2cc(Nc3nc(N4CCC(N5CCC(C)CC5)CC4)ncc3Cl)ccc2n(C)c1=O [Compound I-40],9 nM
8,CNC(=O)COc1cc2cc(Nc3nc(N4CCC(N5CCCC5)CC4)ncc3Cl)ccc2n(C)c1=O [Compound I-41],8 nM
9,CNC(=O)COc1cc2cc(Nc3nc(N4CCC(N5CCCCC5)CC4)ncc3Cl)ccc2n(C)c1=O [Compound I-42],9 nM
10,CNC(=O)COc1cc2cc(Nc3nc(N4CCC(CCN5CCCCC5)CC4)ncc3Cl)ccc2n(C)c1=O [Compound I-43],6 nM
11,CNC(=O)COc1cc2cc(Nc3nc(N4CCC(CN5CCOCC5)CC4)ncc3Cl)ccc2n(C)c1=O [Compound I-44],9 nM
12,CNC(=O)COc1cc2cc(Nc3nc(N4CCC(N(C)C)CC4)ncc3Cl)ccc2n(C)c1=O [Compound I-45],7 nM
13,CNC(=O)COc1cc2cc(Nc3nc(N4CCCN(C)CC4)ncc3Cl)ccc2n(C)c1=O [Compound I-46],13 nM
14,CNC(=O)COc1cc2cc(Nc3nc(N4CCc5cnccc5C4)ncc3Cl)ccc2n(C)c1=O [Compound I-47],5 nM
15,CNC(=O)COc1cc2cc(Nc3nc(N4C[C@@H](C)N(C)[C@@H](C)C4)ncc3Cl)ccc2n(C)c1=O [Compound I-48],11 nM
16,CNC(=O)COc1cc2cc(Nc3nc(N4CCN(C)C(C)(C)C4)ncc3Cl)ccc2n(C)c1=O [Compound I-49],11 nM
17,CNC(=O)COc1cc2cc(Nc3nc(N4CCOC(C)(C)C4)ncc3Cl)ccc2n(C)c1=O [Compound I-50],5 nM
18,CNC(=O)COc1cc2cc(Nc3nc(N4CCO[C@@H](C)C4)ncc3Cl)ccc2n(C)c1=O [Compound I-51],6 nM
19,CNC(=O)COc1cc2cc(Nc3nc(N4CCO[C@H](C)C4)ncc3Cl)ccc2n(C)c1=O [Compound I-52],7 nM
20,CNC(=O)COc1cc2cc(Nc3nc(N4C[C@@H](C)O[C@@H](C)C4)ncc3Cl)ccc2n(C)c1=O [Compound I-53],6 nM
21,CNC(=O)COc1cc2cc(Nc3nc(N4CCOCC4)ncc3Cl)ccc2n(C)c1=O [Compound I-54],5 nM
22,CNC(=O)COc1cc2cc(Nc3nc(N4CCCC(F)CC4)ncc3Cl)ccc2n(C)c1=O (stereo not shown) [Compound I-55],5 nM
23,CNC(=O)COc1cc2cc(Nc3nc(N4CCC(C(C)(C)C(=O)O)CC4)ncc3Cl)ccc2n(C)c1=O [Compound I-56],4 nM
24,CNC(=O)COc1cc2cc(Nc3nc(N4CCC(N5C[C@H]6CC[C@@H](C5)O6)CC4)ncc3Cl)ccc2n(C)c1=O [Compound I-57],6 nM
25,CNC(=O)COc1cc2cc(Nc3nc(N4CCC(N(C)CC(F)(F)F)CC4)ncc3Cl)ccc2n(C)c1=O [Compound I-58],7 nM
26,CNC(=O)COc1cc2cc(Nc3nc(N4CCC(N5CC6CCC5CC6)CC4)ncc3Cl)ccc2n(C)c1=O [Compound I-59],11 nM

row,Compound,IC50
1,CNC(=O)COc1cc2cc(Nc3nc(N4CC5CC4CC5(F)F)ncc3Cl)ccc2n(C)c1=O (stereo not shown) [Compound I-60],6 nM
2,CNC(=O)COc1cc2cc(Nc3nc(N4CCN(CC(=O)O)C(=O)C4)ncc3Cl)ccc2n(C)c1=O [Compound I-61],4 nM
3,CNC(=O)COc1cc2cc(Nc3nc(N4CCC(C(=O)O)CC4)ncc3Cl)ccc2n(C)c1=O [Compound I-62],4 nM
4,CNC(=O)COc1cc2cc(Nc3nc(N4CCN(CC(=O)O)CC4)ncc3Cl)ccc2n(C)c1=O [Compound I-63],8 nM
5,CNC(=O)COc1cc2cc(Nc3nc(N4C[C@H](F)C[C@@H](F)C4)ncc3Cl)ccc2n(C)c1=O [Compound I-64],9 nM
6,CNC(=O)COc1cc2cc(Nc3nc(N4C[C@H](F)C[C@H](F)C4)ncc3Cl)ccc2n(C)c1=O [Compound I-65],23 nM
7,CNC(=O)COc1cc2cc(Nc3nc(N4CCC[C@H](C)C4)ncc3Cl)ccc2n(C)c1=O [Compound I-66],5 nM
8,CNC(=O)COc1cc2cc(Nc3nc(N4CCc5cn[nH]c5C4)ncc3Cl)ccc2n(C)c1=O [Compound I-67],5 nM
9,CNC(=O)COc1cc2cc(Nc3nc(N4CCc5cnn(C)c5C4)ncc3Cl)ccc2n(C)c1=O [Compound I-68],7 nM
10,CNC(=O)COc1cc2cc(Nc3nc(N4CCCC(C)(C#N)C4)ncc3Cl)ccc2n(C)c1=O (stereo not shown) [Compound I-69],23 nM
11,CNC(=O)COc1cc2cc(Nc3nc(N4CCC[C@@H](C)C4)ncc3Cl)ccc2n(C)c1=O [Compound I-70],7 nM
12,CNC(=O)COc1cc2cc(Nc3nc(N4CCCC(C)(C)C4)ncc3Cl)ccc2n(C)c1=O [Compound I-71],9 nM
13,CNC(=O)COc1cc2cc(Nc3nc(N4CC5CCCC5C4)ncc3Cl)ccc2n(C)c1=O (stereo not shown) [Compound I-72],9 nM
14,CCn1c(=O)c(OCC(=O)NC)cc2cc(Nc3nc(N4CCC(C(=O)O)CC4)ncc3Cl)ccc21 [Compound I-73],4 nM
15,CCn1c(=O)c(OCC(=O)NC)cc2cc(Nc3nc(N4C[C@H](C)C[C@H](C)C4)ncc3Cl)ccc21 [Compound I-74],5 nM
16,CCn1c(=O)c(OCC(=O)NC)cc2cc(Nc3nc(N4CCC(F)CC4)ncc3Cl)ccc21 [Compound I-75],5 nM
17,CCn1c(=O)c(OCC(=O)NC)cc2cc(Nc3nc(N4CCC(F)(F)CC4)ncc3Cl)ccc21 [Compound I-76],5 nM
18,CCn1c(=O)c(OCC(=O)NC)cc2cc(Nc3nc(N4CCC[C@@H](C)C4)ncc3Cl)ccc21 [Compound I-77],8 nM
19,CCCn1c(=O)c(OCC(=O)NC)cc2cc(Nc3nc(N4CCC(C(=O)O)CC4)ncc3Cl)ccc21 [Compound I-78],4 nM
20,CCCn1c(=O)c(OCC(=O)NC)cc2cc(Nc3nc(N4C[C@H](C)C[C@H](C)C4)ncc3Cl)ccc21 [Compound I-79],11 nM
21,CCCn1c(=O)c(OCC(=O)NC)cc2cc(Nc3nc(N4CCC(F)CC4)ncc3Cl)ccc21 [Compound I-80],7 nM
22,CCCn1c(=O)c(OCC(=O)NC)cc2cc(Nc3nc(N4CCC(F)(F)CC4)ncc3Cl)ccc21 [Compound I-81],7 nM
23,CNC(=O)COc1cc2cc(Nc3nc(N4CCC(C(=O)O)CC4)ncc3Cl)ccc2n(C(C)C)c1=O [Compound I-82],4 nM
24,CNC(=O)COc1cc2cc(Nc3nc(N4C[C@H](C)C[C@H](C)C4)ncc3Cl)ccc2n(C(C)C)c1=O [Compound I-83],12 nM
25,CNC(=O)COc1cc2cc(Nc3nc(N4CCC(F)CC4)ncc3Cl)ccc2n(C(C)C)c1=O [Compound I-84],10 nM
26,CNC(=O)COc1cc2cc(Nc3nc(N4CCC(F)(F)CC4)ncc3Cl)ccc2n(C(C)C)c1=O [Compound I-85],9 nM

# Source: patent US11001570B2, “6-amino-quinolinone compounds and derivatives as BCL6 inhibitors” (Boehringer Ingelheim International GmbH, priority 2016, dated 2021)
